EC50, Activity and IC50 data for 18 molecules are collected here from ChEMBL document CHEMBL1157489, “Identification of novel non-peptide CXCR4 antagonists by ligand-based design approach” (Bioorg Med Chem Lett, 2008).

The first assay has as its system Human immunodeficiency virus 1. Nature of the assay: Antiviral activity against HIV1 3B assessed as inhibition of virus-induced cytopathogenicity. The assay is classed as functional, organism-based. Particulars: Human immunodeficiency virus 1, 3B.
`CC(C)C[C@H](NC(=N)N)C(=O)Nc1ccc2c(c1)cc(C(=O)NCCc1c[nH]c3ccccc13)n2CCCNC(=N)N`: the EC50 was found to be 5.4 µM.

Another assay deals with T1, C-X-C chemokine receptor type 4 (Homo sapiens, UniProt P61073). Nature of the assay: Displacement of [125I]SDF1 from human CXCR4 expressed in CHO cells at 10 uM. The assay is classed as cell-based.
T1 sequence (P61073 whole entry): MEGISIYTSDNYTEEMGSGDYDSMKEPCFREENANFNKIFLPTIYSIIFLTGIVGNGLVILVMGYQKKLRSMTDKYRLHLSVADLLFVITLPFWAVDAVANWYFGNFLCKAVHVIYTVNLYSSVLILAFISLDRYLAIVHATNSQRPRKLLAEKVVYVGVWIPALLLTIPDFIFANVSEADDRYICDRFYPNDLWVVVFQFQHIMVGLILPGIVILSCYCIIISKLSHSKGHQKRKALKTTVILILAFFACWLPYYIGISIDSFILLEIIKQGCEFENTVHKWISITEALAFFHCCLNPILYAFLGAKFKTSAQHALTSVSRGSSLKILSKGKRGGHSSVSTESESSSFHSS
Conditions: not given
Background: Loss of bound radioactivity is the signal in a displacement assay; it reports binding, not function.
For the molecule `N=C(N)NCCCn1c(C(=O)NCCc2ccc(O)cc2)cc2cc(NC(=O)CNC(=N)N)ccc21`, the Activity was found to be 23%.

In turn, `N=C(N)NCCc1cc2cc(NC(=O)CCc3ccc(O)cc3)ccc2n1CCc1ccc2ccccc2c1` yielded an Activity of 53%.

For `N=C(N)NCCCn1c(C(=O)NCCc2c[nH]c3ccccc23)cc2cc(NC(=O)C(Cc3ccccc3)NC(=N)N)ccc21` (racemic), the Activity came to 72%.

`N=C(N)NCCCn1c(C(=O)NCCc2c[nH]c3ccccc23)cc2cc(NC(=O)CNC(=N)N)ccc21` registered an Activity of 88%.

For `N=C(N)NCCCn1c(C(=O)NCCc2c[nH]c3ccccc23)cc2cc(NC(=O)C3CCN(C(=N)N)CC3)ccc21`, the Activity worked out at 86%.

In turn, `N=C(N)NCCCn1c(C(=O)NCCc2c[nH]c3ccccc23)cc2cc(NC(=O)CCNC(=N)N)ccc21` displayed an Activity of 70%.

`CC(C)CC(NC(=N)N)C(=O)Nc1ccc2c(c1)cc(C(=O)NCCc1c[nH]c3ccccc13)n2CCCNC(=N)N` (racemic) gave an Activity of 77%.

Turning to `N=C(N)NCCCn1c(C(=O)Nc2cccc3ccccc23)cc2cc(NC(=O)CCc3ccc(O)cc3)ccc21`, the Activity amounted to 55%.

Consider `N=C(N)NCCCn1c(C(=O)NCCc2cccc3ccccc23)cc2cc(NC(=O)CNC(=N)N)ccc21`, for which the Activity came to 61%.

Take `N=C(N)NCCCn1c(C(=O)NCCc2ccc3ccccc3c2)cc2cc(NC(=O)CNC(=N)N)ccc21`: the Activity was determined as 63%.

As for `N=C(N)NCCCn1c(C(=O)Nc2cccc3ccccc23)cc2cc(NC(=O)Cc3ccc(O)cc3)ccc21`, the Activity turned out to be 62%.

The next assay concerns the target T1, C-X-C chemokine receptor type 4. The experiment in a line: Displacement of [125I]SDF1 from human CXCR4 expressed in CHO cells.
Conditions: not given
The assay is classed as cell-based.
Take `CC(C)C[C@H](NC(=N)N)C(=O)Nc1ccc2c(c1)cc(C(=O)NCCc1c[nH]c3ccccc13)n2CCCNC(=N)N`: the IC50 stood at 1.2 µM.

On to `N=C(N)NCCCn1c(C(=O)NCCc2c[nH]c3ccccc23)cc2cc(NC(=O)C3CCN(C(=N)N)CC3)ccc21`, for which the IC50 amounted to 3 µM.

Molecule `NC(N)=NCCCn1c(C(=O)NCCc2c[nH]c3ccccc23)cc2cc(NC(=O)CN=C(N)N)ccc21` yielded an IC50 of 3 µM. That is a single-digit micromolar value.

On to `NC(N)=NCCCn1c(C(=O)Nc2cccc3ccccc23)cc2cc(NC(=O)Cc3ccc(O)cc3)ccc21`, for which the IC50 is 4.8 µM.

`NC(N)=NCCc1cc2cc(NC(=O)CCc3ccc(O)cc3)ccc2n1CCc1ccc2ccccc2c1` registered an IC50 of 2.7 µM. Compared with the last molecule, the IC50 is about 1.8-fold lower.

Molecule `N=C(N)NCCCn1c(C(=O)NCCc2c[nH]c3ccccc23)cc2cc(NC(=O)[C@@H](Cc3ccccc3)NC(=N)N)ccc21` came in with an IC50 of 3.7 µM.

`N=C(N)NCCCn1c(C(=O)NCCc2c[nH]c3ccccc23)cc2cc(NC(=O)[C@H](Cc3ccccc3)NC(=N)N)ccc21`: the IC50 is 1.7 µM.

`CC(C)C[C@@H](NC(=N)N)C(=O)Nc1ccc2c(c1)cc(C(=O)NCCc1c[nH]c3ccccc13)n2CCCNC(=N)N` displayed an IC50 of 2.2 µM. The IC50 values of the last two molecules are within 1.5-fold of each other.

The term EC50 denotes the concentration that produces a half-maximal response. Broadly, the IC50 is the concentration that gives 50% inhibition. Lower therefore signals higher potency.
